From patent US20200000772A1, “CENICRIVIROC COMBINATION THERAPY FOR THE TREATMENT OF FIBROSIS” (Tobira Therapeutics, Inc., priority 2014, published 2020)

Tested on: HIV-1 infected adult subjects
Experiment: Study 202 biomarkers of inflammation
Format: in vivo, human
Protocol: As an exploratory analysis, levels of inflammation biomarkers MCP-1, sCD14, high sensitivity C-reactive protein [hs-CRP], interleukin-6 [IL-6], D-dimer, and fibrinogen) were measured. Baseline values and changes from baseline at Week 24 and Week 48 of MCP-1, sCD14, hs-CRP, IL-6, D-dimer, and fibrinogen are summarized in Table 22.
The sCD14 samples were originally analyzed in 2 separate batches: Batch 1 included samples leading up to the Week 24 primary analysis and Batch 2 included Week 32 and Week 48 (end of study) samples. A repeat analysis of archived samples all analyzed in one batch was conducted for consistency in analysis across time points. To control for the effects of covariates, a linear mixed-model repeated-measures analysis was conducted on the changes from baseline in sCD14 (analysis dated September 2013).

CCCCOCCOc1ccc(-c2ccc3c(c2)/C=C(/C(=O)Nc2ccc([S@@+]([O-])Cc4cncn4CCC)cc2)CCCN3CC(C)C)cc1 [CVC, (S)-8-[4-(2-Butoxyethoxy)phenyl]-1-isobutyl-N-(4-{[(1-propyl-1H-imidazol-5-yl)methyl]sulfinyl}phenyl)-1,2,3,4-tetrahydro-1-benzazocine-5-carboxamide]
D-dimer Changes from baseline at Week 24, Mean (CVC 100 mg): -32 ng/mL
D-dimer Changes from baseline at Week 24, Median (CVC 100 mg): -1.0 ng/mL
D-dimer Changes from baseline at Week 48, Mean (CVC 100 mg): -41 ng/mL
D-dimer Changes from baseline at Week 48, Median (CVC 100 mg): -1.0 ng/mL
Fibrinogen Changes from baseline at Week 24, Mean (CVC 100 mg): -3 mg/dL
Fibrinogen Changes from baseline at Week 24, Median (CVC 100 mg): -14 mg/dL
Fibrinogen Changes from baseline at Week 48, Mean (CVC 100 mg): 11 mg/dL
Fibrinogen Changes from baseline at Week 48, Median (CVC 100 mg): 15 mg/dL
IL-6 Changes from baseline at Week 24, Mean (CVC 100 mg): 0.42 pg/mL
IL-6 Changes from baseline at Week 24, Median (CVC 100 mg): 0.00 pg/mL
IL-6 Changes from baseline at Week 48, Mean (CVC 100 mg): 0.29 pg/mL
IL-6 Changes from baseline at Week 48, Median (CVC 100 mg): 0.00 pg/mL
MCP-1 Changes from baseline at Week 24, Mean (CVC 100 mg): 493 pg/mL
MCP-1 Changes from baseline at Week 24, Median (CVC 100 mg): 429 pg/mL
MCP-1 Changes from baseline at Week 48, Mean (CVC 100 mg): 636 pg/mL
MCP-1 Changes from baseline at Week 48, Median (CVC 100 mg): 523 pg/mL
hs-CRP Changes from baseline at Week 24, Mean (CVC 100 mg): -0.16 mg/dL
hs-CRP Changes from baseline at Week 24, Median (CVC 100 mg): -0.03 mg/dL
hs-CRP Changes from baseline at Week 48, Mean (CVC 100 mg): -0.08 mg/dL
hs-CRP Changes from baseline at Week 48, Median (CVC 100 mg): -0.01 mg/dL
plasma MCP-1 over time (CVC 100 mg and 200 mg, EFV, up to Week 48): dose-response was observed with CVC in increases over time
sCD14 Changes from baseline Week 32, Mean (CVC 100 mg, original values): 110000 pg/mL
sCD14 Changes from baseline Week 32, Median (CVC 100 mg, original values): 120000 pg/mL
sCD14 Changes from baseline at Week 12, Mean (CVC 100 mg, original values): -140000 pg/mL
sCD14 Changes from baseline at Week 12, Median (CVC 100 mg, original values): -160000 pg/mL
sCD14 Changes from baseline at Week 24, Mean (CVC 100 mg, original values): -190000 pg/mL
sCD14 Changes from baseline at Week 24, Median (CVC 100 mg, original values): -180000 pg/mL
sCD14 Changes from baseline at Week 48, Mean (CVC 100 mg, original values): 100000 pg/mL
sCD14 Changes from baseline at Week 48, Median (CVC 100 mg, original values): 100000 pg/mL
D-dimer Changes from baseline at Week 24, Mean (CVC 200 mg): -64 ng/mL
D-dimer Changes from baseline at Week 24, Median (CVC 200 mg): -50 ng/mL
D-dimer Changes from baseline at Week 48, Mean (CVC 200 mg): -70 ng/mL
D-dimer Changes from baseline at Week 48, Median (CVC 200 mg): -50 ng/mL
Fibrinogen Changes from baseline at Week 24, Mean (CVC 200 mg): -7 mg/dL
Fibrinogen Changes from baseline at Week 24, Median (CVC 200 mg): -8 mg/dL
Fibrinogen Changes from baseline at Week 48, Mean (CVC 200 mg): -10 mg/dL
Fibrinogen Changes from baseline at Week 48, Median (CVC 200 mg): -13 mg/dL
IL-6 Changes from baseline at Week 24, Mean (CVC 200 mg): 0.81 pg/mL
IL-6 Changes from baseline at Week 24, Median (CVC 200 mg): 0.00 pg/mL
IL-6 Changes from baseline at Week 48, Mean (CVC 200 mg): -0.04 pg/mL
IL-6 Changes from baseline at Week 48, Median (CVC 200 mg): 0.00 pg/mL
MCP-1 Changes from baseline at Week 24, Mean (CVC 200 mg): 753 pg/mL
MCP-1 Changes from baseline at Week 24, Median (CVC 200 mg): 695 pg/mL
MCP-1 Changes from baseline at Week 48, Mean (CVC 200 mg): 900 pg/mL
MCP-1 Changes from baseline at Week 48, Median (CVC 200 mg): 756 pg/mL
hs-CRP Changes from baseline at Week 24, Mean (CVC 200 mg): -0.07 mg/dL
hs-CRP Changes from baseline at Week 24, Median (CVC 200 mg): -0.04 mg/dL
hs-CRP Changes from baseline at Week 48, Mean (CVC 200 mg): -0.18 mg/dL
hs-CRP Changes from baseline at Week 48, Median (CVC 200 mg): -0.04 mg/dL
sCD14 Changes from baseline Week 32, Mean (CVC 200 mg, original values): 20000 pg/mL
sCD14 Changes from baseline Week 32, Median (CVC 200 mg, original values): -20000 pg/mL
sCD14 Changes from baseline at Week 12, Median (CVC 200 mg, original values): -210000 pg/mL
sCD14 Changes from baseline at Week 24, Mean (CVC 200 mg, original values): -230000 pg/mL
sCD14 Changes from baseline at Week 24, Median (CVC 200 mg, original values): -190000 pg/mL
sCD14 Changes from baseline at Week 48, Mean (CVC 200 mg, original values): -40000 pg/mL
sCD14 Changes from baseline at Week 48, Median (CVC 200 mg, original values): -40000 pg/mL
